Measurements taken from patent publication US20090269403A1, “ORAL CONTRACEPTIVE DOSAGE FORMS AND METHODS OF MAKING SUCH DOSAGE FORMS” (priority 2008, published 2009).

Legend:
[1] = Drug release from enteric-coated drospirenone/ethinylestradiol tablets (USP Type II paddle dissolution); type: physicochemical; details: Example 19 enteric-coated tablets, second test run, 75 rpm, 37° C.
Method: The rate at which the tablets release the drospirenone and ethinylestradiol was determined. Each tablet was placed in 0.1 N HCl and stirred for 2 hours. After this time, the pH of each of the mixtures containing the tablets was adjusted to pH 6.8 with phosphate buffer and stirred for 4 hours using a USP Type II paddle apparatus at 75 rpm and 37° C. A second test run gave the results listed below in Table 12. A graph of the drug release profiles for the second test run is depicted in FIG. 4.

[2] = acidic conditions (such as encountered in the gastric environment); cited from earlier work
[3] = water at various pH values; cited from earlier work

Average % Drug Release (n = 6), 5 min ([1]; 5 min, in 0.1 N HCl): 0.0%
Average % Drug Release (n = 6), 120 min ([1]; 120 min, end of 2 hours in 0.1 N HCl): 0.0%
Average % Drug Release (n = 6), 130 min ([1]; 130 min, 2 hours 0.1 N HCl, then pH 6.8 phosphate buffer): 29.1%
Average % Drug Release (n = 6), 140 min ([1]; 140 min, 2 hours 0.1 N HCl, then pH 6.8 phosphate buffer): 108.4%
Average % Drug Release (n = 6), 150 min ([1]; 150 min, 2 hours 0.1 N HCl, then pH 6.8 phosphate buffer): 105.4%
Average % Drug Release (n = 6), 165 min ([1]; 165 min, 2 hours 0.1 N HCl, then pH 6.8 phosphate buffer): 105.2%
Average % Drug Release (n = 6), 180 min ([1]; 180 min, 2 hours 0.1 N HCl, then pH 6.8 phosphate buffer): 105.0%
Average % Drug Release (n = 6), 240 min ([1]; 240 min, 2 hours 0.1 N HCl, then pH 6.8 phosphate buffer): 103.9%
Average % Drug Release (n = 6), 300 min ([1]; 300 min, 2 hours 0.1 N HCl, then pH 6.8 phosphate buffer): 102.5%
SMILES: C[C@]12CCC(=O)C=C1[C@@H]1C[C@@H]1[C@H]1[C@@H]3[C@@H]4C[C@@H]4[C@@]4(CCC(=O)O4)[C@@]3(C)CC[C@@H]12 [Drospirenone, 6β,7β,15β, 16β-dimethylene-3-oxo-17a-pregn-4-ene-21,17-carbolactone]
stability under acidic conditions [2]: undergoes isomerization to a form that is inactive
solubility in water [3]: only sparingly soluble in water
